Data from the NIST ThermoML archive (doi:10.1021/acs.jced.6b00542).
± gives the expanded uncertainty stated by the source.

Experiment: xn = mol fraction of the nth substance listed
Details: Liquid; for speed of sound: 100 kPa, Frequency=3 MHz, Sing-around technique in a fixed-path interferometer; for viscosity / mass density: 102 kPa; for viscosity: Concentric cylinders viscometry; for mass density: Vibrating tube method

CCCCCCCCCCCCCCCCC [heptadecane] + CCCCc1ccccc1
speed of sound (333.15 K, x2 = 0.6419): 1204 ± 0.8 m/s | speed of sound (333.15 K, x2 = 0.7515): 1201.6 ± 0.8 m/s | speed of sound (333.15 K, x2 = 0.8742): 1200.1 ± 0.8 m/s | viscosity (333.15 K, x2 = 0): 1.79 ± 0.01 mPa·s | viscosity (333.15 K, x2 = 0.1662): 1.56 ± 0.01 mPa·s | viscosity (333.15 K, x2 = 0.3047): 1.38 ± 0.01 mPa·s | viscosity (333.15 K, x2 = 0.4587): 1.2 ± 0.01 mPa·s | viscosity (333.15 K, x2 = 0.6419): 0.981 ± 0.007 mPa·s | viscosity (333.15 K, x2 = 0.7515): 0.865 ± 0.007 mPa·s | viscosity (333.15 K, x2 = 0.8742): 0.747 ± 0.006 mPa·s | mass density (333.15 K, x2 = 0): 750.45 ± 0.14 kg/m3 | mass density (333.15 K, x2 = 0.1662): 757.11 ± 0.14 kg/m3 | mass density (333.15 K, x2 = 0.3047): 763.79 ± 0.13 kg/m3 | mass density (333.15 K, x2 = 0.4587): 772.56 ± 0.13 kg/m3 | mass density (333.15 K, x2 = 0.6419): 785.94 ± 0.13 kg/m3 | mass density (333.15 K, x2 = 0.7515): 796.02 ± 0.13 kg/m3 | mass density (333.15 K, x2 = 0.8742): 809.9 ± 0.12 kg/m3 | viscosity (343.15 K, x2 = 0): 1.52 ± 0.01 mPa·s | viscosity (343.15 K, x2 = 0.1662): 1.33 ± 0.01 mPa·s | viscosity (343.15 K, x2 = 0.3047): 1.19 ± 0.01 mPa·s | viscosity (343.15 K, x2 = 0.4587): 1.04 ± 0.01 mPa·s | viscosity (343.15 K, x2 = 0.6419): 0.861 ± 0.007 mPa·s | viscosity (343.15 K, x2 = 0.7515): 0.768 ± 0.006 mPa·s | viscosity (343.15 K, x2 = 0.8742): 0.671 ± 0.006 mPa·s | mass density (343.15 K, x2 = 0): 743.7 ± 0.23 kg/m3 | mass density (343.15 K, x2 = 0.1662): 750.12 ± 0.23 kg/m3 | mass density (343.15 K, x2 = 0.3047): 756.65 ± 0.23 kg/m3 | mass density (343.15 K, x2 = 0.4587): 765.4 ± 0.23 kg/m3 | mass density (343.15 K, x2 = 0.6419): 778.47 ± 0.23 kg/m3 | mass density (343.15 K, x2 = 0.7515): 788.4 ± 0.23 kg/m3 | mass density (343.15 K, x2 = 0.8742): 802 ± 0.23 kg/m3 | viscosity (353.15 K, x2 = 0): 1.3 ± 0.01 mPa·s | viscosity (353.15 K, x2 = 0.1662): 1.16 ± 0.01 mPa·s | viscosity (353.15 K, x2 = 0.3047): 1.04 ± 0.01 mPa·s | viscosity (353.15 K, x2 = 0.4587): 0.906 ± 0.007 mPa·s | viscosity (353.15 K, x2 = 0.6419): 0.763 ± 0.006 mPa·s | viscosity (353.15 K, x2 = 0.7515): 0.684 ± 0.006 mPa·s | viscosity (353.15 K, x2 = 0.8742): 0.602 ± 0.006 mPa·s | mass density (353.15 K, x2 = 0): 736.8 ± 0.2 kg/m3 | mass density (353.15 K, x2 = 0.1662): 743.1 ± 0.2 kg/m3 | mass density (353.15 K, x2 = 0.3047): 749.6 ± 0.2 kg/m3 | mass density (353.15 K, x2 = 0.4587): 758.1 ± 0.2 kg/m3 | mass density (353.15 K, x2 = 0.6419): 771 ± 0.2 kg/m3 | mass density (353.15 K, x2 = 0.7515): 780.7 ± 0.2 kg/m3 | mass density (353.15 K, x2 = 0.8742): 794.1 ± 0.2 kg/m3 | viscosity (363.15 K, x2 = 0): 1.14 ± 0.01 mPa·s | viscosity (363.15 K, x2 = 0.1662): 1.01 ± 0.01 mPa·s | viscosity (363.15 K, x2 = 0.3047): 0.909 ± 0.007 mPa·s | viscosity (363.15 K, x2 = 0.4587): 0.805 ± 0.006 mPa·s | viscosity (363.15 K, x2 = 0.6419): 0.687 ± 0.006 mPa·s | viscosity (363.15 K, x2 = 0.7515): 0.623 ± 0.006 mPa·s | viscosity (363.15 K, x2 = 0.8742): 0.546 ± 0.006 mPa·s | mass density (363.15 K, x2 = 0): 729.8 ± 0.2 kg/m3 | mass density (363.15 K, x2 = 0.1662): 736.1 ± 0.2 kg/m3 | mass density (363.15 K, x2 = 0.3047): 742.4 ± 0.2 kg/m3 | mass density (363.15 K, x2 = 0.4587): 750.8 ± 0.2 kg/m3 | mass density (363.15 K, x2 = 0.6419): 763.4 ± 0.2 kg/m3 | mass density (363.15 K, x2 = 0.7515): 773 ± 0.2 kg/m3 | mass density (363.15 K, x2 = 0.8742): 786.1 ± 0.2 kg/m3 | viscosity (373.15 K, x2 = 0): 1 ± 0.01 mPa·s | viscosity (373.15 K, x2 = 0.1662): 0.891 ± 0.007 mPa·s | viscosity (373.15 K, x2 = 0.3047): 0.811 ± 0.006 mPa·s | viscosity (373.15 K, x2 = 0.4587): 0.725 ± 0.006 mPa·s | viscosity (373.15 K, x2 = 0.6419): 0.628 ± 0.006 mPa·s | viscosity (373.15 K, x2 = 0.7515): 0.567 ± 0.006 mPa·s | viscosity (373.15 K, x2 = 0.8742): 0.499 ± 0.005 mPa·s | mass density (373.15 K, x2 = 0): 723 ± 0.2 kg/m3 | mass density (373.15 K, x2 = 0.1662): 729 ± 0.2 kg/m3 | mass density (373.15 K, x2 = 0.3047): 735.2 ± 0.2 kg/m3 | mass density (373.15 K, x2 = 0.4587): 743.5 ± 0.2 kg/m3 | mass density (373.15 K, x2 = 0.6419): 755.8 ± 0.2 kg/m3 | mass density (373.15 K, x2 = 0.7515): 765.2 ± 0.2 kg/m3 | mass density (373.15 K, x2 = 0.8742): 778.1 ± 0.2 kg/m3
